Experimental findings from patent publication US5547958A, “N-(8α-ergolinyl)-amides” (Schering Aktiengesellschaft, priority 1989, dated 1996) are described below.

The test system of this assay is behavior stereotypes on rats (masticatory, licking, or gnawing movements). The experiment in a line: Stereotype-releasing effectiveness on rats 1 hour after i.p. pretreatment (dopamine agonistic action). The assay is classed as in vivo. The conditions noted are these: probit analysis, n = 8; for ED50 (effective dose, stereotype-releasing effectiveness): 60th-62nd min p.i. The procedure: The dopamine agonistic action was determined according to Horowski, R. and Wachtel, H. Eur. J. Pharmaz. col. 36: 373-383, 1976. One hour after i.p. pretreatment with test substance or vehicle, the presence of behavior stereotypes on rats (masticatory, licking, or gnawing movements) was determined for 2 minutes (60th-62nd min. p.i.).
Stereotype-releasing effectiveness on rats 1 hour
after i.p. pretreatment. Effective doses (ED50) with 95%
confidence limit were determined with the help of probit

SMILES strings stand for the structures.

For the compound `CCCN1CC(NC(=S)SC)C[C@@H]2c3cccc4[nH]c(C)c(c34)C[C@H]21` (stereo partly shown) [A, N(2-methyl-6-n-propyl-8ergolinyl)-dithiocarbamic acid methyl ester], the “ED50 (effective dose, stereotype-releasing effectiveness)” value came to 0.080 and the “95% Confidence Limit of ED50” value is 0.010-0.170.

With `CCCN1CC(NC=S)C[C@@H]2c3cccc4[nH]c(C)c(c34)C[C@H]21` (stereo partly shown) [B, N(2-methyl-6-n-propyl-8ergolinyl)-thioformamide], the “ED50 (effective dose, stereotype-releasing effectiveness)” value is given as 0.050 and the “95% Confidence Limit of ED50” value is given as 0.034-0.079.
